“Also recorded” adds a separate entry of the source.
Assays:
[1] = test system: human platelet aggregation (collagen-induced, platelet rich plasma); settings: compared with compounds of Formula III; cited from earlier work
[2] = test system: smooth muscle of the vas deferens; settings: mammalian male reproductive system; cited from earlier work
[3] = test system: female reproductive system; settings: cited from earlier work
gastric secretion = assay: Effects on Gastric Secretion in the Rat (Test B); assay type: in vivo; settings: pylorus ligated, s.c. 2 x 1.5 mg/kg, 4 hr
Source text: B. Evaluation of the Effects of Prostaglandin Analogs III on Gastric Secretion in the Rat
A procedure based on that described by Lipmann (J. Pharm. Pharmacol., 21:335 [1968]) was used to assess the influence of test compounds on gastric secretion. Rats of one sex weighing 150 to 200 g were randomly divided into groups of six animals each and fasted for 48 hr previous to the experiments, water being available ad limitum. The animals were anesthetized with ether, the abdomen was opened through a midline incision and the pylorus was ligated. Test compounds were diluted from stock solution so as to administer a dose of 1.5 mg/kg in a volume equivalent to 1 ml/kg. Subcutaneous injections were applied immediately after surgery and again 2 hr later, so that a total dose of 3.0 mg/kg was administered. Dilutions were made with phosphate buffer (pH 7.38) as recommended by Lee et al. (Prostaglandins 3:29 [1973]), in order to insure adequate stability of drugs at the subcutaneous depot. Each compound was tested in one group of rats; an additional control group received only the vehicle.
Four hr after pyloric ligation the animals were killed with ether, the cardias ligated and the stomachs removed. The volume of gastric secretion was measured and the contents centrifuged at 5000 rpm for 10 min. Total acid in the supernatant was titrated against a 0.1 N sodium hydroxide solution and the amount expressed in mEq.
Volume and total acid values of the treated group were compared with those of the controls by the "T" test. Anti-secretory activity was scored according to the following scale: […]

rat uterus = assay: Effects on the Rat Uterus (Test F); settings: rat uterus segments, 0.001 to 10.0 mcg/ml, 29° C.
Experimental: F. Evaluation of the Effects of Prostaglandin Analogs III on the Rat Uterus
The uterine stimulant effect of test compounds is determined in segments of uterus obtained from rats (140-160 g) pretreated subcutaneously with 1 mg/kg of diethylstibesterol 18 hr before the experiment. The tissues are placed in 10 ml chambers filled with de-Jalon solution at 29° C. and bubbled with 95% O2 and 5% CO2, and prepared for isometric recording with force displacement transducers. Preparations are stretched to an initial tension of 1 g and are left undisturbed for 30 min, after which two responses to 1 mcg/ml of carbachol added to the bath at a 10 min interval, are obtained (the value of the second response is recorded). Responses to increasing concentrations of the test compound (0.001 to 10.0 mcg/ml with one log intervals) are then recorded every 10 min. Preparations are washed four times after each response. All doses of drugs are administered in a 0.1 ml volume. Since it has been observed that the magnitude of the second response to carbachol, which is approximately 10% greater than the first, is close to the maximal response of the tissue, such value is taken as a measure of the sensititity of the particular segment. Responses to each concentration of the test compound are expressed in terms of percentage of the second response to carbachol and the ED50 (dose producing a response of 50% that of carbachol) is calculated graphically. Activity is scored according to the following scale: […]

femoral blood flow = assay: Effects on Femoral Blood Flow in the Dog (Test C); assay type: in vivo, dog (mongrel); settings: anesthetized dog, intraarterial 0.001 to 10 mcg
Experimental: C. Evaluation of the Effects of Prostaglandin Analogs III on the Femoral Blood Flow in the Dog
The peripheral vasodilator or constrictor effects of test compounds were determined in mongrel dogs of either sex, weighing between 10 and 20 kg anesthestized intravenously with 35 mg/kg of sodium pentobarbital. An external iliac artery was dissected immediately above the femoral arch for a length of approximately 5 cm and a previously calibrated, non-connulating electromagnetic flowmeter sensor with a lumen between 2.5 and 3.5 mm was placed snugly around the vessel. Cannulas were placed in a branch of the artery arising distally to the location of the flowmeter sensor for intraarterial drug administrations, in the contralateral femoral artery for systemic blood pressure recordings and in the trachea for artificial respiration with room air. Femoral blood flow and systemic blood pressure were continuously recorded with an electromagnetic flowmeter and pressure transducer, respectively.
After an adequate control period, test compounds were injected intraarterially at one log-spaced doses ranging from 0.001 to 10 mcg., in a volume of 0.5 ml and at 5 to 10 min intervals. Maximum changes in bloodflow, as well as any variations in blood pressure, were tabulated for each dose in absolute values (ml/min and mmHg). The calculations were made taking as control values those existing immediately before administration of each dose. The direction of the observed change (+ for increase and - for decrease) was also noted. The dose changing bloodflow by 100 ml/min (ED100 ml/min) was calculated graphically and was used for scoring activity as follows: […]

blood pressure = assay: Effects on Blood Pressure and Heart Rate in the Anesthetized Cat (Test D); assay type: in vivo; settings: i.v. 0.01 to 10.0 mcg/kg, scored on hypotension
Experimental: D. Evaluation of the Effects of Prostaglandin Analogs III on Blood Pressure and Heart Rate in the Anesthetized Cat
The acute effects of test compounds on blood pressure and heart rate were determined in cats of either sex anesthetized with a mixture of pentobarbital sodium (35 mg/kg, i.v.) and barbital sodium (100 mg/kg, i.v.). Cannulas were placed in the trachea to allow adequate spontaneous ventilation, in a femoral artery for blood pressure recording with a strain gage transducer, and in a saphenous vein for drug administration. Heart rate was recorded by means of a cardiotachometer driven by the R wave of the electrocardiogram. After a period of 10 min of stable recordings of blood pressure and heart rate, the test compound was administered intravenously at doses increasing from 0.01 to 10.0 mcg/kg, spaced one log and injected at 10 min intervals. All doses were injected in a volume of 0.1 ml/kg. Modifications of blood pressure and heart rate induced by the test compound were expressed both in absolute units (mmHg and beats/min) and as percent of values recorded immediately before administration of each dose. Biphasic responses were tabulated in the order in which they occur. The direction of the observed changes was also noted (+ for increase and - for decrease).
Activity of compounds in this test was judged only on the basis of the degree of hypotension observed. Thus, the ED50 mmHg (dose decreasing blood pressure by 50 mmHg) was calculated graphically and the compound scored according to the following scale: […]

[4] = test system: blood pressure (hypertensive rat); assay: Effects on Blood Pressure in the Hypertensive Rat (Test E); assay type: in vivo; parameters: key: 0: Not significant at any time interval; 1: Significant at one time interval; 2: Significant at two time intervals; 3: Significant at three time intervals; 4: Significant at all four intervals; settings: 1 mg/kg intraperitoneal, 2, 4, 6 and 8 hr
Experimental: E. Evaluation of the Effects of Prostaglandin Analogs III on Blood Pressure in the Hypertensive Rat
The acute antihypertensive activity of test compounds is determined in rats made hypertensive by the procedure of Grollman (A. Proc. Soc. Exper. Biol. Med., 57:102, [1944]). Female rats weighing between 60 and 100 g are anesthetized with ether, the right kidney approached through a flank retroperitoneal incision, decapsulated and tied with a figure-of-eight ligature. The animals are left to recover and two weeks later are again anesthetized and the contralateral kidney removed. Four weeks after the second operation the rats are subjected to indirect blood pressure measurements and those showing systolic pressure values greater than 160 mmHg are selected for drug testing.
Blood pressure is measured in the tail with an inflatable occluding cuff placed at the base of the extremity and a pulse detector located distally. The cuff is inflated to approximately 300 mmHg and is slowly deflated until pulsations appear, indicating the level of systolic pressure; diastolic pressure is not recorded by this procedure. All measurements are carried out in unanesthetized, unsedated animals maintained in a warm environment during the recording procedure and for at least 6 hr before. In all cases, three pressure readings are obtained in succession and mean values are calculated thereof.
Experiments are carried out in groups of five hypertensive rats in which systolic pressure is determined immediately before and 2, 4, 6 and 8 hr after the intraperitoneal administration of the test compound at a dose of 1 mg/kg. Drugs are diluted from stock solutions with phosphate buffer (Lee et al., Prostaglandins 3:29 [1973]), so as to inject this quantity in a volume of 1 ml/kg. Changes from control blood pressure values are calculated for each interval both in mmHg and in per-cent, and evaluated for significance by means of Wilcoxon's signed rank test (Wilcoxon and Wilcox, Some rapid approximate statistical procedures, Lederle Laboratories, Pearl River [1964]).

SMILES: CCCCC[C@H](O)/C=C/[C@H]1[C@H](O)CC(=O)[C@@H]1CCCCCCC(=O)O [PGE1]
- inhibition of platelet aggregation, natural prostaglandins, in words [1]: displays a similar activity
- contraction of the vas deferens [2]: contracts the smooth muscle of the vas deferens

SMILES: CCCCC[C@H](O)/C=C/[C@@H]1[C@@H](C/C=C\CCCC(=O)O)[C@@H](O)C[C@H]1O [PGF2]
- effects on uterus, fertility, gestation and labor [3]: exerts potent oxytocic effects in inducing labor

SMILES: CCCCC[C@H](O)/C=C/[C@@H]1[C@@H](C/C=C\CCCC(=O)O)[C@@H](O)C[C@H]1O [PGF2α]
- effects on uterus, fertility, gestation and labor [3]: has contragestational effects; also recorded: induces spontaneous abortions in early pregnancy

SMILES: CCC1CC(C(/C=C/C2C=CC(=O)C2CCCCCCC(=O)OC)OC(C)=O)C1 (centres unmarked) [TR-4281, Methyl 15RS-acetoxy-16,18-methano-9-oxoprosta-10,13E-dien-1-oate]
- Activity value, Test B: Inhibition of a Rodent Gastric Secretion (% decrease in acidity) (gastric secretion): 0 (<26)
- Activity value, Test F: Effects on Rat Uterus (ED50, response of 50% that of carbachol) (rat uterus): 0 (>10)

SMILES: CCC1CC([C@H](O)/C=C/C2C(O)CC(O)C2CCCCCCC(=O)OC)C1 (stereo partly drawn) [TR-4624, Methyl 16,18-methano-9α,1α,15S-trihydroxyprost-13E-en-1-oate]
- Activity value, Test B: Inhibition of a Rodent Gastric Secretion (% decrease in acidity) (gastric secretion): 0 (<26)
- Activity value, Test C: Increase in Canidae Femoral Blood Flow (ED100 ml/min) (femoral blood flow): 0 (>10.0)
- Activity value, Test D: Increase in Normal Feline Blood Pressure and Heart Rate (ED50 mmHg) (blood pressure): 0 (>10.1)
- Activity value, Test E: Effects on Blood Pressure in Hypertensive Rat (blood pressure decrease) [4]: 0
- Activity value, Test F: Effects on Rat Uterus (ED50, response of 50% that of carbachol) (rat uterus): 0 (>10)

SMILES: CCC1CC([C@H](O)/C=C/C2C(O)CC(O)C2CCCCCCC(=O)OC)C1 (stereo partly drawn) [TR-4625, Methyl 16,18-methano-9β,11α,15S-trihydroxyprost-13E-en-1-oate]
- Activity value, Test B: Inhibition of a Rodent Gastric Secretion (% decrease in acidity) (gastric secretion): 0 (<26)
- Activity value, Test C: Increase in Canidae Femoral Blood Flow (ED100 ml/min) (femoral blood flow): 0 (>10.0)
- Activity value, Test D: Increase in Normal Feline Blood Pressure and Heart Rate (ED50 mmHg) (blood pressure): 0 (>10.1)
- Activity value, Test E: Effects on Blood Pressure in Hypertensive Rat (blood pressure decrease) [4]: 0
- Activity value, Test F: Effects on Rat Uterus (ED50, response of 50% that of carbachol) (rat uterus): 0 (>10)

SMILES: CCC1CC([C@H](O)/C=C/C2C(O)CC(O)C2CCCCCCCO)C1 (stereo partly drawn) [TR-4627, 16,18-Methanoprost-13E-en-1,9β,11α,15S-tetraol]
- Activity value, Test B: Inhibition of a Rodent Gastric Secretion (% decrease in acidity) (gastric secretion): 0 (<26)
- Activity value, Test F: Effects on Rat Uterus (ED50, response of 50% that of carbachol) (rat uterus): 0 (>10)

SMILES: CCC1CC(C)([C@@H](O)/C=C/C2C=CC(=O)C2CCCCCCC(=O)OC)C1 (stereo partly drawn) [TR-4695, Methyl 15S-hydroxy-16,18-methano-16-methyl-9-oxoprosta-10,13E-dien-1-oate]
- Activity value, Test B: Inhibition of a Rodent Gastric Secretion (% decrease in acidity) (gastric secretion): 0 (<26)
- Activity value, Test F: Effects on Rat Uterus (ED50, response of 50% that of carbachol) (rat uterus): 0 (>10)

Source: patent US4220795A, “Cyclobutyl substituted derivatives of prostaglandin analogs” (Miles Laboratories, Inc., priority 1978, dated 1980)
